In US9981963B2, “3-(1H-pyrazol-4-yl)-1H-pyrrolo[2,3-c]pyridine derivatives as NIK inhibitors” (Janssen Pharmaceutica NV, priority 2013, dated 2018):

Assays:
[1] = biological target: T1, Recombinant Human NF-kappaB-inducing Kinase (NIK/MAP3K14) (Homo sapiens (Human), UniProt Q99558); assay: Biological Assay A2: inhibition of auto-phosphorylation of recombinant human NIK/MAP3K14 (AlphaScreen); assay type: biochemical; conditions: 25 microM ATP, 0.2 nM GST-tagged NIK/MAP3K14, 1 h at 25° C., averaged values, read-out: Alpha-Screen IC50
Experimental: Inhibition of Auto-phosphorylation of Recombinant Human NF-kappaB-inducing Kinase (NIK/MAP3K14) Activity (AlphaScreen®)
NIK/MAP3K14 auto-phosphorylation activity was measured using the AlphaScreen® (αscreen) format (Perkin Elmer). All compounds tested were dissolved in dimethyl sulfoxide (DMSO) and further dilutions were made in assay buffer. Final DMSO concentration was 1% (v/v) in assays. Assay buffer was 50 mM Tris pH 7.5 containing 1 mM EGTA (ethylene glycol tetraacetic acid), 1 mM DTT (dithiothreitol), 0.1 mM Na3VO4, 5 mM MgCl2, 0.01% Tween® 20. Assays were carried out in 384 well Alphaplates (Perkin Elmer). Incubations consisted of compound, 25 microM Adenosine-5′-triphosphate (ATP), and 0.2 nM NIK/MAP3K14. Incubations were initiated by addition of GST-tagged NIK/MAP3K14 enzyme, carried out for 1 h at 25° C. and terminated by addition of stop buffer containing anti-phospho-IKK Ser176/180 antibody. Protein A Acceptor and Glutathione-Donor beads were added before reading using an EnVision® Multilabel Plate Reader (Perkin Elmer). Signal obtained in the wells containing blank samples was subtracted from all other wells and IC50's were determined by fitting a sigmoidal curve to % inhibition of control versus Log10 compound concentration.

JJN-3 cells = assay: Biological Assay C: antiproliferative activity on JJN-3 cells (CellTiter-Glo); assay type: cell-based; conditions: Homo sapiens, 72 hr of treatment, averaged values
Experimental: (§1) Determination of Antiproliferative Activity on LP-1, L-363 and JJN-3 Cells
(§2) All compounds tested were dissolved in DMSO and further dilutions were made in culture medium. Final DMSO concentration was 0.3% (v/v) in cell proliferation assays. Viability was assessed using CellTiter-Glo cell viability assay kit (Promega). The human LP-1, L-363 and JJN-3 cells (DSMZ) were cultured in RPMI 1640 medium supplemented with 2 mM L-glutamine, and 10% fetal calf serum (PAA). Cells were routinely kept as suspension cells at 37° C. in a humidified 5% CO2 atmosphere. Cells were passaged at a seeding density of 0.2×10^6/ml twice a week. Cells were seeded in black tissue culture treated 96-well plates (Perkin Elmer). Densities used for plating ranged from 2,000 to 6,000 cells per well in a total volume of 75 μl medium. After twenty four hours, drugs and/or solvents were added (25 μl) to a final volume of 100 μl. Following 72 hr of treatment plates were removed from the incubator and allowed to equilibrate to room temperature for approx 10 min. 100 μl CellTiter-Glo reagent was added to each well that was then covered (Perkin Elmer Topseal) and shaken on plate shaker for 10 min. Luminescence was measured on a HTS Topcount (Perkin Elmer). Within an experiment, the results for each treatment were the mean of 2 replicate wells. For initial screening purposes, compounds were tested using a 9 point dilution curve (serial 1:3 dilutions). For each experiment, controls (containing no drug) and a blank incubation (containing cells read at the time of compound addition) were run in parallel. The blank value was subtracted from all control and sample values. For each sample, the mean value for cell growth (in relative light units) was expressed as a percentage of the mean value for cell growth of the control.

L-363 cells = assay: Biological Assay C: antiproliferative activity on L-363 cells (CellTiter-Glo); assay type: cell-based; conditions: Homo sapiens, 72 hr of treatment, averaged values
Experimental: as §1, §2

LP-1 cells = assay: Biological Assay C: antiproliferative activity on LP-1 cells (CellTiter-Glo); assay type: cell-based; conditions: Homo sapiens, 72 hr of treatment, averaged values
Experimental: as §1, §2

[2] = system: P-IKKα levels in L363 cells; assay: Biological Assay B: effect of compounds on P-IKKα levels in L363 cells; assay type: cell-based; conditions: Homo sapiens, L-363; L363 cells with BAFF, 2 hr treatment; averaged values; read-out: IKKα Cellular IC50
Experimental: Effect of Compounds on P-IKKα Levels in L363 Cells
All compounds tested were dissolved in DMSO and further dilutions were made in culture medium. Final DMSO concentration was 1% (v/v) in cell assays. The human L363 cells (ATCC) were cultured in RPMI 1640 medium supplemented with GlutaMax and 10% fetal calf serum (PAA). Cells were routinely maintained at densities of 0.2×10^6 cells per ml-1×10^6 cells per ml at 37° C. in a humidified 5% CO2 atmosphere. Cells were passaged twice a week splitting back to obtain the low density. Cells were seeded in 96 well plates (Nunc 167008) at 2×10^6 per ml media in a volume of 75 μl per well plus 25 μl 1 μg/ml recombinant human B-cell activating factor (BAFF/BLyS/TNFSF13B). Seeded cells were incubated at 37° C. in a humidified 5% CO2 atmosphere for 24 hr. Drugs and/or solvents were added (20 μl) to a final volume of 120 μl. Following 2 hr treatment plates were removed from the incubator and cell lysis was achieved by the addition of 30 μl 5× lysis buffer followed by shaking on a plate shaker at 4° C. for 10 min. At the end of this incubation lysed cells were centrifuged at 800×g for 20 min at 4° C. and the lysate was assessed for P-IKKα levels by sandwich immuno-assay carried out in anti-rabbit antibody coated Mesoscale plates. Within an experiment, the results for each treatment were the mean of 2 replicate wells. For initial screening purposes, compounds were tested using an 8 point dilution curve (serial 1:3 dilutions). For each experiment, controls (containing MG132 and BAFF but no test drug) and a blank incubation (containing MG132 and BAFF and 10 μM ADS125117, a test concentration known to give full inhibition) were run in parallel. The blank incubation value was subtracted from all control and sample values. To determine the IC50 a sigmoidal curve was fitted to the plot of % inhibition of control P-IKKα levels versus Log10 compound concentration.

[3] = biological target: T1, Recombinant Human NF-kappaB-inducing Kinase (NIK/MAP3K14); assay: Biological Assay A: inhibition of recombinant human NIK/MAP3K14 activity (MSD, MBP substrate); conditions: 25 μM ATP, 10 nM NIK/MAP3K14, 1 h at 25° C.; averaged over all measurements on all batches; read-out: Biochemical (MSD MBP) IC50
Experimental: Inhibition of Recombinant Human NF-kappaB-inducing Kinase (NIK/MAP3K14) Activity
Assay buffer was 50 mM Tris pH 7.5 containing 1 mM EGTA (ethylene glycol tetraacetic acid), 1 mM DTT (dithiothreitol), 0.1 mM Na3VO4, 5 mM MgCl2, 0.01% Tween® 20. Assays were carried out in 384 well Mesoscale high binding plates which had been coated with myelin basic protein (MBP) and blocked with bovine serum albumin to prevent non-specific protein binding. All compounds tested were dissolved in dimethyl sulfoxide (DMSO) and further dilutions were made in assay buffer. Final DMSO concentration was 1% (v/v) in assays. Incubations consisted of compound (1% DMSO in control and blank wells), 25 μM Adenosine-5′-triphosphate (ATP), and 10 nM NIK/MAP3K14 substituting enzyme with buffer in the blank wells. Incubations were carried out for 1 h at 25° C. and were followed by washing and sequential incubation with rabbit anti-phospho-MBP and anti-rabbit Ig Sulfotag antibody before reading bound Sulfotag on a Mesoscale Discovery. Signal obtained in the wells containing blank samples was subtracted from all other wells and IC50's were determined by fitting a sigmoidal curve to % inhibition of control versus Log10 compound concentration.

T1 sequence (Q99558 whole entry): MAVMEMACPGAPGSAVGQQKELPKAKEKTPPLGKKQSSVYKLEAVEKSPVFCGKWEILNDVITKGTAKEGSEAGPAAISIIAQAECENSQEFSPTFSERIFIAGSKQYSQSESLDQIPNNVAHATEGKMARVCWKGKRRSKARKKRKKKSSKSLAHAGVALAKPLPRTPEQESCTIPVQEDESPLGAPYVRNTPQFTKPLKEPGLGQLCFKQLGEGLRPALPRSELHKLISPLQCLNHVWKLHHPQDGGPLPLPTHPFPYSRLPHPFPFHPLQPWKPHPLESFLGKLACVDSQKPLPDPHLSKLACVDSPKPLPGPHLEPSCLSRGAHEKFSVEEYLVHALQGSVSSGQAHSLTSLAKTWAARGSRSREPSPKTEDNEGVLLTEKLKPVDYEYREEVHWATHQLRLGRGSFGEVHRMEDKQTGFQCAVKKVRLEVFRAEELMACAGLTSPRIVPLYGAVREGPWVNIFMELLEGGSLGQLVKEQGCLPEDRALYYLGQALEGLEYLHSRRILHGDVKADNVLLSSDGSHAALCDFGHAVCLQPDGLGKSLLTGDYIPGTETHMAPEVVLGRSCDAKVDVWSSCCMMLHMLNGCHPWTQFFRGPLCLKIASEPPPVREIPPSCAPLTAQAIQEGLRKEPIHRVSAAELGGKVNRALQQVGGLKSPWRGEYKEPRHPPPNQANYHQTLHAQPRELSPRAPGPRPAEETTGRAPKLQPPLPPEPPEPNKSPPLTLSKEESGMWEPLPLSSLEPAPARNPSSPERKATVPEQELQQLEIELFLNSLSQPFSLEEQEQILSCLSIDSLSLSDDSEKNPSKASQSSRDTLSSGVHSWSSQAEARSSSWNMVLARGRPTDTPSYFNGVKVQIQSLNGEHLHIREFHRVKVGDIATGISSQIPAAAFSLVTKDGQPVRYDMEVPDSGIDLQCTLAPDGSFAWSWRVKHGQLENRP

Row | Structure (SMILES) | IC50 [1] [nM] | EC50 (JJN-3 cells) [nM] | EC50 (L-363 cells) [nM] | EC50 (LP-1 cells) [µM] | IC50 [2] [nM] | IC50 [3] [nM]
1 | CC(C)(O)C#Cc1cc2c(-c3cn[nH]c3)cn(CC(C)(C)O)c2cn1 [Compound 14] | 108 | 1400 | 1330 | 12.1 | 132 | 18
2 | CC(C)(O)C#Cc1cc2c(-c3cn[nH]c3)cn(CCCO)c2cn1 [Compound 5] | 14 | 1200 | 791 | 18.8 | 71 | 16
3 | CCn1cc(-c2cn[nH]c2)c2cc(C#CC3(O)CCCC3)ncc21 [Compound 10] | 23 | 1210 | 3180 | 5.07 | 113 | 9
4 | CC(C)(O)C#Cc1cc2c(-c3cn[nH]c3)cn(S(C)(=O)=O)c2cn1 [Compound 25] | 55 | 1900 | 2260 | 4.98 | 460 | 14
5 | OC1(C#Cc2cc3c(-c4cn[nH]c4)c[nH]c3cn2)CCCC1 [Compound 6] | 26 | 6880 | 10700 | > 30 | 1120 | 19
6 | CC(C)(O)C#Cc1cc2c(-c3c[nH]nc3C#N)cn(CC(C)(C)O)c2cn1 [Compound 32] | 44 | 5670 | 22600 | > 30 | 1010 | 68
7 | CCCC(C)n1cc(-c2cn[nH]c2)c2cc(C#CC(C)(C)O)ncc21 (stereo not drawn) [Compound 23] | 43 | 848 | 625 | 1.08 | 302 | 57
8 | Cn1cc(-c2cn[nH]c2)c2cc(C#CC3(O)CCCC3)ncc21 [Compound 8] | 7 | 3330 | 5860 | 9.54 | 406 | 21
9 | CC(C)Cn1cc(-c2cn[nH]c2)c2cc(C#CC(C)(C)O)ncc21 [Compound 21] | 25 | 629 | 427 | 1.12 | 119 | 55
10 | CCn1cc(-c2c[nH]nc2C#N)c2cc(C#CC(C)(C)O)ncc21 [Compound 31] | 35 | 2380 | 3940 | 4.9 | 214 | 9
11 | COCCCn1cc(-c2cn[nH]c2)c2cc(C#CC(C)(C)O)ncc21 [Compound 18] | 41 | 1870 | 2540 | 6.82 | 167 | 45
